Test results taken from patent publication US20250281449A1, “NITROGEN-CONTAINING ANALOGS OF SALINOMYCIN FOR USE IN MULTIPLE MYELOMA (MM)” (Centre National de la Recherche Scientifique, priority 2021, published 2025).

What was measured:
Type in all cases: cell-based, human
XG-7 and OPM-2 cell line = test: Apoptosis with iron supplementation (FeCl3), Annexin V-PE; conditions: 80 μM deferasirox or 100 nM Ironomycin, 4 hours then 72H with FeCl3 100 μM
Experimental: XG-7 and OPM-2 cell line was pre-incubated with or without 80 μM of deferasirox or 100 nM of Ironomycin, for 4 hours followed by 72H incubation in presence or absence of FeCl3 (100 μM). Apoptosis was assessed using Annexin V-PE staining by flow cytometry.
(§1) Annexin V-PE staining for apoptosis analysis was performed using the “PE Annexin V Apoptosis Detection Kit I” (559763, Becton Dickinson).

XG7 and OPM-2 cells = test: Cell death with pan caspase inhibitor Q-VD-Oph pretreatment, AnnexinV-PE; conditions: 20 μM Q-VD-Oph pretreatment, 48H
Experimental: XG7 and OPM-2 cells were pretreated at least 30 minutes by 20 μM of Q-VD-Oph as pan caspase inhibitor before treatment. Cells were treated as indicated during 48H, effect of Ironomycin on cell death induction was analyzed using AnnexinV-PE staining by flow cytometry (B). N=4.
as §1

[1] = test system: MMSET (isoforms I and II); test: Western blot of MMSET protein level; conditions: MM cell lines with t(4; 14) translocation, 24H
Experimental: (§2) Cells were treated with iron chelators (80 μM Deferasirox), and Ironomycin (IC50 and 200 nM) during 24H. Protein levels of MMSET (isoforms I and II), MYC, H3K36me3 and H3K27me3 were analyzed by western blot. MMSET (isoforms I and II) and MYC signal were normalized by α-tubulin protein level, H3K36me3 and H3K27me3 signal were normalized by total histone 3 protein level.
(§3) The total cell lysates were obtained with RIPA 1× lysis buffer (#9806, Cell Signaling®) according with the supplier recommendations.
(§4) Protein lysates migrate on 10% polyacrylamide gel (NP-0301, Novex, Life Technologies®), in MOPS 1× running buffer (NP0001, Novex, Life Technologies®) or MES 1× running buffer NP-0002, Novex, Life Technologies®) and proteins are transferred to nitrocellulose membrane (1B301001, I-Blot Transfert Starck, NuPAGE, Life Technologies®). The primary antibodies mouse-anti-phospho-Histone H2A.X (Ser139) clone JBW301 ( 1/1000, Merck Millipore), anti-H3K36me3 (#ab9050, abcam®), anti-H3K27me3 (#9733, Cell Signaling®), anti-MMSET (#65127, Cell Signaling® et ab75359, abcam), anti-MYC (#5605, Cell Signaling®) were incubated in TBS-Tween 20 0.1% (Tris-Buffered Saline, pH 7.4) with 5% non-fat milk or Bovine serum albumin (Sigma-Aldrich, A7906). […] Quantification of protein levels was performed with Image J® software (National Institutes of Health, Bethesda, MD, USA).

MYC = test: Western blot of MYC protein level; conditions: 24H
Experimental: as §2, §3, §4

primary MM cells = test: Assay on primary MM cells of patients (flow cytometry); conditions: n=5, with IL-6
Experimental: (§5) Primary MM cells were treated with Ironomycin (A) or AM-23 (B) and incubated during 96H with IL-6. The toxicity on MM cells and non-MM cells was analyzed by flow cytometry and expressed in % of control.
(§6) Bone marrow samples were collected after patients' written informed consent in accordance with the Declaration of Helsinki and institutional research board approval from Montpellier University hospital. Cells are obtained from […] of 5 patients with MM. Cells are obtained by density gradient separation and qualified by Flow cytometry.
(§7) Cells are cultured in Gibco® RPMI-1640 (Glutamax) medium (#6187-010) with 10% FBS at a density of 0.5×10^6 Cell/mL with 2 ng/mL of interleukin-6. Cells are seeded 24H after thawing and treated with various compounds during 72H.
(§8) Total cells were counted with trypan blue and stained with the panel CD38-APC, CD138-PE (Beckman coulter) and analyzed by flow cytometry (Fortessa cytometer, BD Pharmigen). Tumorous MM cells were gated on CD38+ and CD138+.

non-MM cells = test: Assay on primary samples of patients, non-MM cells (flow cytometry)
Experimental: as §5, §6, §7, §8

[2] = test system: CD34+ cells (normal hematopoietic progenitors)
Experimental: Hematopoietic progenitor colony-forming units assay were performed with CD34+ cells from apheresis of 5 donors. Cells were cultured in hydroxyl-methyl-cellulose medium with or without conventional chemotherapy or Ironomycin (A) or AM-23 (B). CFU-C, CFU-E/BFU-E and CFU-GM, -G, -M were counted after 14 days culture. N=5.

[3] = test system: XG2 melphalan resistant (XG2 Melph R) cell line; test: Drug combination concentration matrix, viability by ATP quantification, Bliss synergy; conditions: melphalan resistant cell line XG2 MeIR, 96 h
Experimental: XG-7 or XG2 WT (XG2 neg) or XG2 melphalan resistant (XG2 Melph R) cell lines were respectively treated with increasing concentrations of ironomycin combined with melphalan during 96 h and cell viability was tested by ATP quantification to obtain the viability matrix. The synergy matrix was calculated as described in Material and Methods.
HMCL cell lines were cultured for 4 days in 96-well flat-bottom microtiter plates in RPMI 1640 medium or DMEM medium, 10% or 20% FCS (control medium) in the presence of various compounds. The number of viable cells in culture was determined using the Cell Titer-Glo Luminescent Cell Viability Assay from Promega, Madison, WI, USA using a Centro LB 960 luminometer (Berthold Technologies, Bad Wildbad, Germany).
The interaction between the drugs tested in vitro was investigated with a concentration matrix test, in which increasing concentration of each single drug were assessed with all possible combinations of the other drugs. For each combination, the percentage of expected growing cells in the case of effect independence was calculated according to the Bliss equation (Combes et al., 2019): […]
where fuC is the expected fraction of cells unaffected by the drug combination in the case of effect independence, and fuA and fuB are the fractions of cells unaffected by treatment A and B, respectively. […]

For `C#CCN[C@@H]1C=C[C@]2(O[C@H]([C@@H](CC)C(=O)[C@@H](C)[C@@H](O)[C@H](C)[C@@H]3O[C@@H]([C@@H](CC)C(=O)O)CC[C@@H]3C)[C@@H](C)C[C@H]2C)O[C@@]12CC[C@@](C)([C@H]1CC[C@](O)(CC)[C@H](C)O1)O2` [Ironomycin], the “effect of iron supplementation on induced apoptosis” value (XG-7 and OPM-2 cell line) was “not reversed by Iron supplementation”, the “effect of iron supplementation on induced apoptosis” value (XG-7 and OPM-2 cell line; listed as ironomycin) was “did not affect” and the “inhibition of induced apoptosis by pan caspase inhibitor Q-VD-Oph” value (XG7 and OPM-2 cells) was “partially inhibited”. For the same compound, the “expression of MMSET” value [1] was “downregulates the expression of MMSET”, the MYC protein expression (MYC) was “significant downregulation” and the “toxicity on primary MM cells of patients” value (primary MM cells) was “validated the therapeutic interest”. For the same compound, the “toxicity for non-tumoral cells” value (non-MM cells) was “without significant toxicity”, the “toxicity on normal hematopoietic progenitors” value [2] was “low toxicity” and the “interaction effect, combined with melphalan” value [3] was “remains synergistic”.
